Patent US11053260B2, “Tri-cycle compound and applications thereof” (FUJIAN COSUNTER PHARMACEUTICAL CO., LTD., priority 2017, dated 2021)
Read-outs that look alike come from different tables or passages of the source.

Tested on: HBV
Assay: HBV in vitro test in quantitative qPCR assay (HBV DNA content in HepG2.2.15 cells)
Type: cell-based
Settings: HBV DNA by qPCR, day 8, read-out: 50% inhibitory concentration (EC50) value of HBV
Description: HBV In Vitro Test in Quantitative qPCR Assay
The HBV DNA content in HepG2.2.15 cells was determined by real-time quantitative qPCR assay (real time-qPCR), and the inhibitory effect of the compound on HBV was evaluated by the EC50 value of the compound.
2.1 Cell line: HepG2.2.15 cells
3.1 HepG2.2.15 cells (4×10^4 cells/well) were seeded into a 96-well plate and incubated overnight at 37° C. under 5% CO2.
3.2 On the 2nd day, the compound was diluted into 8 concentrations with 3-time gradient. The compounds with different concentrations were added into the culture wells in duplicate wells. The final concentration of DMSO in the culture medium was 1%. 1 μM GLS4 was used as a 100% inhibition control, and 1% DMSO was used as a 0% inhibition control.
3.3 On the 5th day, the culture medium was replaced with a fresh medium containing the compound.
3.4 On the 8th day, the culture medium in the culture well was collected, and the DNA was extracted with a high-throughput DNA purification kit (Qiagen-51162), of which specific procedure was referred to the product specification.
3.6 15 μL of the reaction mixture was added into each well of a 96-well PCR plate, followed by addition of 10 μL of sample DNA or HBV DNA standards into each well.
3.7 PCR reaction conditions: heating at 95° C. for 10 minutes; then denaturation at 95° C. for 15 seconds, extension at 60° C. for 1 minute, a total of 40 cycles.
3.8.1 Calculation of the percentage of inhibition: % Inh.=[1−(DNA copy number in sample−DNA copy number in 1 μM GLS4)/(DNA copy number in DMSO control−DNA copy number in 1 μM GLS4)]×100
3.8.2 Calculation of EC50: The 50% inhibitory concentration (EC50) value of the compound on HBV was calculated by GraphPad Prism software.

[1] = Hepatitis B virus, HepG2.2.15, 192 h

| Compound | EC50 [1] | EC50 |
| --- | --- | --- |
| O=C(NCCC1CCCO1)c1ccc2c(c1)NC(=O)c1cc(Cl)cn1S2(=O)=O (stereo not drawn) [WX143] | ≤ 100 nM | – |
| CC(C)c1ncc(CNC(=O)c2ccc3c(c2)NC(=O)c2c(Cl)ccn2S3(=O)=O)s1 [WX145] | 100 to 500 nM | – |
| CC(C)(C)OC(=O)N1CC2C(C1)C2NC(=O)c1ccc2c(c1)NC(=O)c1cccn1S2(=O)=O (stereo not drawn) [WX146] | 1000 to 10000 nM | – |
| COCCCNC(=O)c1ccc2c(c1)NC(=O)c1cccn1S2(=O)=O [WX175] | 100 to 500 nM | – |
| O=C(NCc1ccccn1)c1ccc2c(c1)NC(=O)c1cccn1S2(=O)=O [WX176] | 1000 to 10000 nM | – |
| O=C(NCCC1CCCC1)c1ccc2c(c1)NC(=O)c1cccn1S2(=O)=O [WX184] | 100 to 500 nM | – |
| CCc1cc2n(c1)S(=O)(=O)c1ccc(C(=O)NCCC3CCCO3)cc1NC2=O (stereo not drawn) [WX185] | ≤ 100 nM | – |
| Cc1cc2n(c1)S(=O)(=O)c1ccc(C(=O)NCCC3CCCO3)cc1NC2=O (stereo not drawn) [WX186] | ≤ 100 nM | – |
| O=C(NCCCC(F)(F)F)c1ccc2c(c1)NC(=O)c1cccn1S2(=O)=O [WX187] | 100 to 500 nM | – |
| O=C(NCc1ccc(F)cc1)c1ccc2c(c1)NC(=O)c1cccn1S2(=O)=O [WX189] | 100 to 500 nM | – |
| CS(=O)(=O)CCCNC(=O)c1ccc2c(c1)NC(=O)c1cccn1S2(=O)=O [WX190] | 500 to 1000 nM | – |
| CC(C)(C)OC(=O)N1CC(NC(=O)c2ccc3c(c2)NC(=O)c2cccn2S3(=O)=O)C1 [WX195] | 500 to 1000 nM | – |
| CC(C)(C)OC(=O)N1CC(CNC(=O)c2ccc3c(c2)NC(=O)c2cccn2S3(=O)=O)C1 [WX196] | ≤ 100 nM | – |
| CC(C)(C)OC(=O)N1CCC(CCNC(=O)c2ccc3c(c2)NC(=O)c2cccn2S3(=O)=O)CC1 [WX197] | 100 to 500 nM | – |
| CC(C)(C)OC(=O)N1CCCC1CNC(=O)c1ccc2c(c1)NC(=O)c1cccn1S2(=O)=O (stereo not drawn) [WX198] | 100 to 500 nM | – |
| CC(C)(C)OC(=O)N1CCC(CNC(=O)c2ccc3c(c2)NC(=O)c2cccn2S3(=O)=O)CC1 [WX200] | ≤ 100 nM | – |
| COC(=O)N1CC(NC(=O)c2ccc3c(c2)NC(=O)c2cccn2S3(=O)=O)C1 [WX201] | 500 to 1000 nM | – |
| O=C(NCCc1cnco1)c1ccc2c(c1)NC(=O)c1cccn1S2(=O)=O [WX206] | 100 to 500 nM | – |
| O=C(NCCN1CCCC1=O)c1ccc2c(c1)NC(=O)c1cccn1S2(=O)=O [WX208] | 500 to 1000 nM | – |
| O=C(NCCn1ccccc1=O)c1ccc2c(c1)NC(=O)c1cccn1S2(=O)=O [WX211] | 500 to 1000 nM | – |
| O=C(NCCC1CCCCC1)c1ccc2c(c1)NC(=O)c1cccn1S2(=O)=O [WX215] | 100 to 500 nM | – |
| O=C(NCCc1ccc(F)cc1)c1ccc2c(c1)NC(=O)c1cccn1S2(=O)=O [WX216] | ≤ 100 nM | – |
| COc1ccc(CCNC(=O)c2ccc3c(c2)NC(=O)c2cccn2S3(=O)=O)cc1 [WX217] | ≤ 100 nM | – |

| Compound | EC50 [1] | EC50 |
| --- | --- | --- |
| O=C(NCCc1ccccc1)c1ccc2c(c1)NC(=O)c1cccn1S2(=O)=O [WX218] | ≤ 100 nM | – |
| CSCCNC(=O)c1ccc2c(c1)NC(=O)c1cccn1S2(=O)=O [WX219] | ≤ 100 nM | – |
| O=C(NCc1cccnc1)c1ccc2c(c1)NC(=O)c1cccn1S2(=O)=O [WX220] | ≤ 100 nM | – |
| COC1(CCNC(=O)c2ccc3c(c2)NC(=O)c2cccn2S3(=O)=O)CC1 [WX223] | 500 to 1000 nM | – |
| O=C(NCCC1CCC(F)(F)CC1)c1ccc2c(c1)NC(=O)c1cccn1S2(=O)=O [WX225] | 100 to 500 nM | – |
| O=C(NCCN1CCCS1(=O)=O)c1ccc2c(c1)NC(=O)c1cccn1S2(=O)=O [WX226] | 500 to 1000 nM | – |
| O=C(NCc1cccc(OC(F)(F)F)c1)c1ccc2c(c1)NC(=O)c1cccn1S2(=O)=O [WX227] | 100 to 500 nM | – |
| O=C(NCc1ccncc1)c1ccc2c(c1)NC(=O)c1cccn1S2(=O)=O [WX228] | 100 to 500 nM | – |
| O=C(NCCc1ccccn1)c1ccc2c(c1)NC(=O)c1cccn1S2(=O)=O [WX229] | 100 to 500 nM | – |
| O=C(NCCC(F)(F)F)c1ccc2c(c1)NC(=O)c1cccn1S2(=O)=O [WX230] | 100 to 500 nM | – |
| O=C(NCc1cncnc1)c1ccc2c(c1)NC(=O)c1cccn1S2(=O)=O [WX231] | 100 to 500 nM | – |
| CS(=O)(=O)N1CC(NC(=O)c2ccc3c(c2)NC(=O)c2cccn2S3(=O)=O)C1 [WX232] | 500 to 1000 nM | – |
| CN(C)c1ncc(CNC(=O)c2ccc3c(c2)NC(=O)c2cccn2S3(=O)=O)s1 [WX233] | ≤ 100 nM | – |
| O=C(NCc1ccc(C(F)(F)F)cc1)c1ccc2c(c1)NC(=O)c1cccn1S2(=O)=O [WX235] | 100 to 500 nM | – |
| O=C(NCCc1cccc(F)c1)c1ccc2c(c1)NC(=O)c1cccn1S2(=O)=O [WX237] | ≤ 100 nM | – |
| O=C(NCc1cccc(F)c1)c1ccc2c(c1)NC(=O)c1cccn1S2(=O)=O [WX239] | ≤ 100 nM | – |
| CC(C)c1ncc(CNC(=O)c2ccc3c(c2)NC(=O)c2cccn2S3(=O)=O)s1 [WX254] | 100 to 500 nM | – |
| CC(C)c1ncc(CNC(=O)c2ccc3c(c2)NC(=O)c2cc(Cl)cn2S3(=O)=O)s1 [WX255] | ≤ 100 nM | – |
| O=C(NCc1cnc(Cl)s1)c1ccc2c(c1)NC(=O)c1cccn1S2(=O)=O [WX257] | ≤ 100 nM | – |
| Cc1cccc2ncc(CNC(=O)c3ccc4c(c3)NC(=O)c3cccn3S4(=O)=O)n12 [WX258] | 100 to 500 nM | – |
| Cc1ccsc1CNC(=O)c1ccc2c(c1)NC(=O)c1cccn1S2(=O)=O [WX259] | 100 to 500 nM | – |
| Cc1nc(C)c(CNC(=O)c2ccc3c(c2)NC(=O)c2cccn2S3(=O)=O)s1 [WX260] | ≤ 100 nM | – |
| Cc1ccc2ncc(CNC(=O)c3ccc4c(c3)NC(=O)c3cccn3S4(=O)=O)n2c1 [WX261] | 100 to 500 nM | – |

| Compound | EC50 [1] | EC50 |
| --- | --- | --- |
| Cc1ccc(CNC(=O)c2ccc3c(c2)NC(=O)c2cccn2S3(=O)=O)s1 [WX262] | 100 to 500 nM | – |
| Cn1nccc1CNC(=O)c1ccc2c(c1)NC(=O)c1cccn1S2(=O)=O [WX263] | 500 to 1000 nM | – |
| O=C(NCc1cnccc1C(F)(F)F)c1ccc2c(c1)NC(=O)c1cccn1S2(=O)=O [WX265] | 1000 to 10000 nM | – |
| CN(Cc1nc2ccccc2s1)C(=O)c1ccc2c(c1)NC(=O)c1cccn1S2(=O)=O [WX266] | 100 to 500 nM | – |
| O=C(NCc1cnc2ccccn12)c1ccc2c(c1)NC(=O)c1cccn1S2(=O)=O [WX267] | 100 to 500 nM | – |
| O=C(NCCC1CCCO1)c1ccc2c(c1)NC(=O)c1cc(F)cn1S2(=O)=O (stereo not drawn) [WX270] | 100 to 500 nM | – |
| Cc1nnc(CNC(=O)c2ccc3c(c2)NC(=O)c2cccn2S3(=O)=O)s1 [WX271] | 500 to 1000 nM | – |
| Cn1cc(CNC(=O)c2ccc3c(c2)NC(=O)c2cccn2S3(=O)=O)cn1 [WX272] | 100 to 500 nM | – |
| CN1CC(CNC(=O)c2ccc3c(c2)NC(=O)c2cccn2S3(=O)=O)OC1=O (stereo not drawn) [WX275] | 500 to 1000 nM | – |
| O=C(NCCc1cccnc1)c1ccc2c(c1)NC(=O)c1cccn1S2(=O)=O [WX278] | ≤ 100 nM | – |
| CC(C)(C)C(=O)N1CCC(CNC(=O)c2ccc3c(c2)NC(=O)c2cccn2S3(=O)=O)CC1 [WX279] | 100 to 500 nM | – |
| O=C(NCC1CCOC1)c1ccc2c(c1)NC(=O)c1cccn1S2(=O)=O (stereo not drawn) [WX280] | 100 to 500 nM | – |
| CC(C)OC(=O)N1CCC(CNC(=O)c2ccc3c(c2)NC(=O)c2cccn2S3(=O)=O)CC1 [WX285] | 100 to 500 nM | – |
| O=C(NCC1CCN(C(=O)Oc2ccccc2)CC1)c1ccc2c(c1)NC(=O)c1cccn1S2(=O)=O [WX286] | 500 to 1000 nM | – |
| CC(C)CC(=O)N1CCC(CNC(=O)c2ccc3c(c2)NC(=O)c2cccn2S3(=O)=O)CC1 [WX287] | 500 to 1000 nM | – |
| O=C(NCC1CCC(F)(F)CC1)c1ccc2c(c1)NC(=O)c1cccn1S2(=O)=O [WX288] | 100 to 500 nM | – |
| O=C(NCCOC1CCCC1)c1ccc2c(c1)NC(=O)c1cccn1S2(=O)=O [WX292] | 500 to 1000 nM | – |
| O=C(NCCc1ccc(F)c(F)c1)c1ccc2c(c1)NC(=O)c1cccn1S2(=O)=O [WX293] | ≤ 100 nM | – |
| O=C(NCCOc1cccnc1)c1ccc2c(c1)NC(=O)c1cccn1S2(=O)=O [WX295] | 100 to 500 nM | – |
| O=C(NCCOc1cccnc1)c1ccc2c(c1)NC(=O)c1cccn1S2(=O)=O [WX297] | – | ≤ 100 nM |
| N#Cc1ccc(-c2ncc(CNC(=O)c3ccc4c(c3)NC(=O)c3cccn3S4(=O)=O)s2)cc1 [WX298] | ≤ 100 nM | – |
| O=C(NCCCc1ccc(F)cc1)c1ccc2c(c1)NC(=O)c1cccn1S2(=O)=O [WX299] | 100 to 500 nM | – |
| O=C(NCCc1cccc(Cl)c1)c1ccc2c(c1)NC(=O)c1cccn1S2(=O)=O [WX300] | 100 to 500 nM | – |
